Laboratory results taken from ChEMBL document CHEMBL1139105, “1,2,3-Thiadiazole substituted pyrazolones as potent KDR/VEGFR-2 kinase inhibitors” (Bioorg Med Chem Lett, 2007).

Tests used:
[1] = (§1) AUC in rat at 1 mg/kg, iv; type: ADME, organism-based, Plasma; design: dose 1 mg/kg, route intravenous; conditions: plasma
[2] = Half life in rat at 1 mg/kg, iv; type: ADME, organism-based; design: dose 1 mg/kg, route intravenous; conditions: in vivo
[3] = Volume of distribution in rat at 1 mg/kg, iv; type: ADME, organism-based; design: dose 1 mg/kg, route intravenous; conditions: in vivo, read-out: Vdss
[4] = Clearance in rat at 1 mg/kg, iv; type: ADME, organism-based; design: dose 1 mg/kg, route intravenous; conditions: in vivo
[5] = target: Vascular endothelial growth factor receptor 2 (Homo sapiens, UniProt P35968); assay: Inhibition of human cytoplasmic VEGFR2 expressed in baculovirus after 15 mins by time resolved fluorescence assay
Chain of Vascular endothelial growth factor receptor 2 (P35968 whole entry): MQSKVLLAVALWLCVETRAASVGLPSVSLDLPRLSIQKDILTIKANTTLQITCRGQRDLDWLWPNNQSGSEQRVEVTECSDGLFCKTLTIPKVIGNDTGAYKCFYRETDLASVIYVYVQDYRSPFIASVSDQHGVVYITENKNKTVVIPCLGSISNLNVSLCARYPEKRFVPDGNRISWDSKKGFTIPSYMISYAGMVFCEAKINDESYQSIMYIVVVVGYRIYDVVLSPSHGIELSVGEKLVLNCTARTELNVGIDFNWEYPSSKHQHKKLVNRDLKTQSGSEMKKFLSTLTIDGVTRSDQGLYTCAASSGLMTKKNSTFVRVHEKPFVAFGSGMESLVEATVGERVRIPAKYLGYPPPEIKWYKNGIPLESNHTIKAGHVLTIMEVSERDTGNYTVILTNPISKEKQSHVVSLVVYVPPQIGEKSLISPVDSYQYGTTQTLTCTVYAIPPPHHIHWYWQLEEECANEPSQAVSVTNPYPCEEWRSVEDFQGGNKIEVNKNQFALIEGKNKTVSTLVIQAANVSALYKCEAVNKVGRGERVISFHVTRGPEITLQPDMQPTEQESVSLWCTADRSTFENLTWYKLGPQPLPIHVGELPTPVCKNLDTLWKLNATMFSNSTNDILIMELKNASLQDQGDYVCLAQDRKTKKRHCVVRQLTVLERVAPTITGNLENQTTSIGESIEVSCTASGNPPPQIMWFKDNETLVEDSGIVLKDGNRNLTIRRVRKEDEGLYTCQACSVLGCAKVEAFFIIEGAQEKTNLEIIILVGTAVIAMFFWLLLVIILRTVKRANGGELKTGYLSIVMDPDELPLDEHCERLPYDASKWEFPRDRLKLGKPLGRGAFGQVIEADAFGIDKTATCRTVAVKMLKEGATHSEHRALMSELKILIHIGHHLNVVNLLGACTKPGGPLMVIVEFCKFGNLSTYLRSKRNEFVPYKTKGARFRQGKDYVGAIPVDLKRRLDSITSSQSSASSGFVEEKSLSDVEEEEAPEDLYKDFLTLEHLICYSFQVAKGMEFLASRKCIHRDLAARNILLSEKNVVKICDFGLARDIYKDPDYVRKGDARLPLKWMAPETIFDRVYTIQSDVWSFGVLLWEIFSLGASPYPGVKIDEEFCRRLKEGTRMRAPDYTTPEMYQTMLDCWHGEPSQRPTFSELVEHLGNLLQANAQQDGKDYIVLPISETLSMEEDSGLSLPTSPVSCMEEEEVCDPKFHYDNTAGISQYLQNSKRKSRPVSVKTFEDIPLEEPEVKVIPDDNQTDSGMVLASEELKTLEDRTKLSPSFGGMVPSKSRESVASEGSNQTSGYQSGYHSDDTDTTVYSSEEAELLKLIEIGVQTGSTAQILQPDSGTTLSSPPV

[6] = (§2) Oral bioavailability in rat at 5 mg/kg; type: ADME, organism-based; conditions: in vivo
[7] = (§3) AUC in rat at 5 mg/kg, po; type: ADME, organism-based, Plasma; design: dose 5 mg/kg, route oral; conditions: plasma
[8] = Half life in rat at 5 mg/kg, po; type: ADME, organism-based; design: dose 5 mg/kg, route oral; conditions: in vivo
[9] = Cmax in rat at 5 mg/kg, po; type: ADME, organism-based; design: dose 5 mg/kg, route oral; conditions: in vivo
[10] = target: Vascular endothelial growth factor receptor 1 (Homo sapiens, UniProt P17948); assay: Inhibition of VEGFR1
[11] = target: Vascular endothelial growth factor receptor 3 (Homo sapiens, UniProt P35916); assay: Inhibition of VEGFR3
Chain of Vascular endothelial growth factor receptor 3 (P35916 whole entry): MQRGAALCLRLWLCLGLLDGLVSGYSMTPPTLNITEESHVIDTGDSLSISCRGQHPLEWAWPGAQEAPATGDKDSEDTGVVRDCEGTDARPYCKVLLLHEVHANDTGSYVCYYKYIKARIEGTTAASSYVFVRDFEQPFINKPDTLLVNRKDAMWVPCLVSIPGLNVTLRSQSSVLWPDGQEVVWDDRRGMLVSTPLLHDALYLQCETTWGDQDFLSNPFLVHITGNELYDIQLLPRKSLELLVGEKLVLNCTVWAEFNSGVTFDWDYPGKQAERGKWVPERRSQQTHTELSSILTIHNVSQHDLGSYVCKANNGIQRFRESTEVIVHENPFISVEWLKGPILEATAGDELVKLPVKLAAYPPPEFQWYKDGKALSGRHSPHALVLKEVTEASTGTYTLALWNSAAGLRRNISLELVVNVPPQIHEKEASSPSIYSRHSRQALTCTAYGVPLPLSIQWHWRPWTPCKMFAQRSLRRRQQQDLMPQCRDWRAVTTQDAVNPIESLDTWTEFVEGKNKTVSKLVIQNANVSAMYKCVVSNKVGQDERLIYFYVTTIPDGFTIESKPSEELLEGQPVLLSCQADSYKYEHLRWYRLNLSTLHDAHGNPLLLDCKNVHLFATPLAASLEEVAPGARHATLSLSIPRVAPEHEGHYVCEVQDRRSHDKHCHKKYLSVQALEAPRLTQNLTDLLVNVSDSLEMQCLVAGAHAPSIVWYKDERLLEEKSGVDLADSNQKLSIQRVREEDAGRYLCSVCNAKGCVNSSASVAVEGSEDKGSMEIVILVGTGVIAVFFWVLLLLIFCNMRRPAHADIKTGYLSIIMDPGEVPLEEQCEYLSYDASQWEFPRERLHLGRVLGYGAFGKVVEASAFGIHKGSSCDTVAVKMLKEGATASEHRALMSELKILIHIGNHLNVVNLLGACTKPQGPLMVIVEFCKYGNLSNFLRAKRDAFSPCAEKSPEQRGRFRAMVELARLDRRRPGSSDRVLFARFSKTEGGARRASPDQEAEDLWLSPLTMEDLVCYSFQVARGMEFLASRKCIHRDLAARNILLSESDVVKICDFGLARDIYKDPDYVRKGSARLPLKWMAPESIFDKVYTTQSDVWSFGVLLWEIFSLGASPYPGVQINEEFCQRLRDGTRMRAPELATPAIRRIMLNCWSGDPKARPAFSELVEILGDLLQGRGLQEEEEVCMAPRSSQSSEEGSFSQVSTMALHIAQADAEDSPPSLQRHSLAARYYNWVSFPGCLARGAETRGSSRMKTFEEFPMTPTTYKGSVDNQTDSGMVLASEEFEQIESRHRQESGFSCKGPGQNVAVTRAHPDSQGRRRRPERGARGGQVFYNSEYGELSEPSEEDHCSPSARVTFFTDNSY

[12] = target: Proto-oncogene tyrosine-protein kinase Src (Homo sapiens, UniProt P12931); assay: Inhibition of SRC
Chain of Proto-oncogene tyrosine-protein kinase Src (P12931 2-536 limits assumed): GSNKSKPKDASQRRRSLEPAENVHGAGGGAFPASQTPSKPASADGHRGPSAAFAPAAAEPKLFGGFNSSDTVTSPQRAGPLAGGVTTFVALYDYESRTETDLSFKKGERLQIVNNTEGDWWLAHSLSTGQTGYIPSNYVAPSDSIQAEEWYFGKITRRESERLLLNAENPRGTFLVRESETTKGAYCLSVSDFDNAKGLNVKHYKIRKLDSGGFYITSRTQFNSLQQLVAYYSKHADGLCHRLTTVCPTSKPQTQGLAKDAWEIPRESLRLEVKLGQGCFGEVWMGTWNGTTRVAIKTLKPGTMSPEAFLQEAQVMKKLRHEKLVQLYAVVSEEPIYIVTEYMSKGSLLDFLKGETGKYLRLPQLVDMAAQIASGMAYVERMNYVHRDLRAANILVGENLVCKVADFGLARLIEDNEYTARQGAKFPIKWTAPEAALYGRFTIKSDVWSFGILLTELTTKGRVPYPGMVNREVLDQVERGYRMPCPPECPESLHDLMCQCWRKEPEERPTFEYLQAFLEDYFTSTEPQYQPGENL

Angiopoietin-1 receptor = Angiopoietin-1 receptor (Homo sapiens, UniProt Q02763); assay: Inhibition of Tie2
[13] = target: High affinity nerve growth factor receptor (Homo sapiens, UniProt P04629); assay: Inhibition of TRK A
Chain of High affinity nerve growth factor receptor (P04629 whole entry): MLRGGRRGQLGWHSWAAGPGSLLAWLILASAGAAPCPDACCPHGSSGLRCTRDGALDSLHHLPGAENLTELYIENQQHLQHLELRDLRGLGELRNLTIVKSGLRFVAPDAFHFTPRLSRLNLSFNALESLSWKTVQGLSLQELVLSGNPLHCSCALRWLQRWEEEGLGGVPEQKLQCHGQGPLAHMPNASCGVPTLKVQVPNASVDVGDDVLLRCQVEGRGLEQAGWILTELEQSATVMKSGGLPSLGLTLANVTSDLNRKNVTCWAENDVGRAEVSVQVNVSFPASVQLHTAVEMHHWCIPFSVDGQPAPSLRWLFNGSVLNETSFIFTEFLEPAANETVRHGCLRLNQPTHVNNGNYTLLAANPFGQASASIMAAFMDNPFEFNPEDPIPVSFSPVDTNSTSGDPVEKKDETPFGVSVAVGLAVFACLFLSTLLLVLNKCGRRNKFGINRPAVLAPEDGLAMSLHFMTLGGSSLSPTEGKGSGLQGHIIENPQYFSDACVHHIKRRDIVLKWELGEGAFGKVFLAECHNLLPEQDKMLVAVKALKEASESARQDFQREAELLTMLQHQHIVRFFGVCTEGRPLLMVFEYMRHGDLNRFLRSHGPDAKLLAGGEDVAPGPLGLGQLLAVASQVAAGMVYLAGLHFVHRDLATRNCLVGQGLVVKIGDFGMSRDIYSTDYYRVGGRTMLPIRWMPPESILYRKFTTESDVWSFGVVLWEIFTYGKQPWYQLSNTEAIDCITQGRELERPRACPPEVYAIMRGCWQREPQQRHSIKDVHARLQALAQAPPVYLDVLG

Rattus norvegicus [14] = assay: as §2; type: ADME, organism-based; conditions: in vivo
Rattus norvegicus [15] = assay: as §1; type: ADME, organism-based, Plasma; design: dose 1 mg/kg, route intravenous; conditions: in vivo
Rattus norvegicus [16] = assay: as §3; type: ADME, organism-based, Plasma; design: dose 5 mg/kg, route oral; conditions: in vivo

| SMILES | AUC [1] | half-life [2] | Vd [3] | clearance [4] | IC50 [5] | other results |
| --- | --- | --- | --- | --- | --- | --- |
| COc1cccc2c1c(/C=C1\C(=O)NN=C1c1snnc1C)cn2C | 192 ng·h/mL | 18 min | 2.2 L/kg | 87 mL/min/kg | – | – |
| Cc1nnsc1C1=NNC(=O)/C1=C\c1c[nH]c2ccccc12 | – | – | – | – | > 1000 nM | – |
| Cc1nnsc1C1=NNC(=O)/C1=C\c1cn(C)c2ccc(C#N)cc12 | – | – | – | – | > 300 nM | – |
| Cn1cc(/C=C2\C(=O)NN=C2c2nccs2)c2c(F)cccc21 | 3600 ng·h/mL | 36 min | 0.23 L/kg | 4.6 mL/min/kg | – | bioavailability [6]: 3%; AUC [7]: 1040 ng·h/mL; half-life [8]: 72 min; Cmax [9]: 139 ng/mL |
| Cc1nnsc1C1=NNC(=O)/C1=C\c1c[nH]c2ccc(Cl)cc12 | – | – | – | – | > 300 nM | – |
| CCOc1cccc2c1c(/C=C1\C(=O)NN=C1c1snnc1C)cn2C | 1140 ng·h/mL | 54 min | 1.1 L/kg | 15 mL/min/kg | – | IC50 [10]: > 3 µM; IC50 [11]: 16 nM; IC50 [12]: 463 nM; IC50 (Angiopoietin-1 receptor): > 10 µM; IC50 [13]: 36 nM |
| Cc1nnsc1C1=NNC(=O)/C1=C\c1cn(C)c2ccc(F)cc12 | – | 30 min | 1.1 L/kg | 25 mL/min/kg | – | F (Rattus norvegicus [14]): 29%; AUC (Rattus norvegicus [15]): 727 ng·h/mL; AUC (Rattus norvegicus [16]): 507 ng·h/mL; half-life [8]: 84 min; Cmax [9]: 356 ng/mL |
